Values joined by “and” are separate entries in the source; they are usually repeats but may differ in a detail not shown here. Equal entries are not always repeated.
Tested on: SW1271 complex spheroids with HUVEC/MSC, growth, % test/control
Experiment: Anticancer human tumor SW1271 cell line growth inhibition [AhR];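 also: spheroids exposed to agents for 7 days before readout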
Conditions: for viability, T/C: stronger effect = lower value
Method in brief: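 Agents were dosed in half-log steps down from roughly clinical Cmax, or from 10 microM where Cmax was unknown, alone and with AhR antagonists. Read-out: percent test/control growth of tumor spheroids containing HUVEC and MSC stromal cells.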

[1] = curve of first compound, second compound 0.1 µM
[2] = curve of first compound, second compound 0.316 µM
[3] = curve of first compound, second compound 1 µM
[4] = curve of first compound, second compound 3.16 µM
[5] = curve of first compound, second compound 10 µM
[6] = second compound 0.1 µM, first compound 0.0316 µM
[7] = second compound 0.1 µM, first compound 0.1 µM
[8] = second compound 0.316 µM, first compound 0.0316 µM
[9] = second compound 0.316 µM, first compound 0.1 µM
[10] = second compound 1 µM, first compound 0.0316 µM
[11] = second compound 1 µM, first compound 0.1 µM
[12] = second compound 3.16 µM, first compound 0.0316 µM
[13] = second compound 3.16 µM, first compound 0.1 µM
[14] = second compound 10 µM, first compound 0.0316 µM
[15] = second compound 10 µM, first compound 0.1 µM
[16] = second compound 0.1 µM, first compound 0.316 µM
[17] = second compound 0.1 µM, first compound 1 µM
[18] = second compound 0.1 µM, first compound 3.16 µM
[19] = second compound 0.1 µM, first compound 10 µM
[20] = second compound 0.316 µM, first compound 0.316 µM
[21] = second compound 0.316 µM, first compound 1 µM
[22] = second compound 0.316 µM, first compound 3.16 µM
[23] = second compound 0.316 µM, first compound 10 µM
[24] = second compound 1 µM, first compound 0.316 µM
[25] = second compound 1 µM, first compound 1 µM
[26] = second compound 1 µM, first compound 3.16 µM
[27] = second compound 1 µM, first compound 10 µM
[28] = second compound 3.16 µM, first compound 0.316 µM
[29] = second compound 3.16 µM, first compound 1 µM
[30] = second compound 3.16 µM, first compound 3.16 µM
[31] = second compound 3.16 µM, first compound 10 µM
[32] = second compound 10 µM, first compound 0.316 µM
[33] = second compound 10 µM, first compound 1 µM
[34] = second compound 10 µM, first compound 3.16 µM
[35] = second compound 10 µM, first compound 10 µM

SMILES | IC50 [1] [nM] | IC50 [2] [nM] | IC50 [3] [nM] | IC50 [4] [nM] | IC50 [5] [nM] | viability, T/C [6] [%] | viability, T/C [7] [%] | viability, T/C [8] [%] | viability, T/C [9] [%] | viability, T/C [10] [%] | viability, T/C [11] [%] | viability, T/C [12] [%] | viability, T/C [13] [%] | viability, T/C [14] [%] | viability, T/C [15] [%] | viability, T/C [16] [%] | viability, T/C [17] [%] | viability, T/C [18] [%] | viability, T/C [19] [%] | viability, T/C [20] [%] | other results
CC[C@@]1(O)C(=O)OCc2c1cc1n(c2=O)Cc2cc3c(CN(C)C)c(O)ccc3nc2-1 + CC(CO)NC(=O)c1cc(-c2ccc(Cl)cc2)nn(-c2cnn(C)c2)c1=O | > 100 | > 100 | > 100 | > 100 | > 100 | 65.8 | 58 | 68.2 | 50.2 | 57.2 | 62.8 | 61.8 | 53.5 | 60.2 | 51.9 |  |  |  |  |  | viability, T/C (second compound 0.1 µM, first compound 0.000316 µM): 93.6%; viability, T/C (second compound 0.1 µM, first compound 0.001 µM): 91.3%; viability, T/C (second compound 0.1 µM, first compound 0.00316 µM): 75.2%; viability, T/C (second compound 0.1 µM, first compound 0.01 µM): 81.6%; viability, T/C (second compound 0.316 µM, first compound 0.000316 µM): 92.9%; viability, T/C (second compound 0.316 µM, first compound 0.001 µM): 70.6%; viability, T/C (second compound 0.316 µM, first compound 0.00316 µM): 91.1%; viability, T/C (second compound 0.316 µM, first compound 0.01 µM): 87.4%; viability, T/C (second compound 1 µM, first compound 0.000316 µM): 81%; viability, T/C (second compound 1 µM, first compound 0.001 µM): 73.6%; viability, T/C (second compound 1 µM, first compound 0.00316 µM): 84.4%; viability, T/C (second compound 1 µM, first compound 0.01 µM): 87%; viability, T/C (second compound 3.16 µM, first compound 0.000316 µM): 77.9%; viability, T/C (second compound 3.16 µM, first compound 0.001 µM): 85.2%; viability, T/C (second compound 3.16 µM, first compound 0.00316 µM): 69.8%; viability, T/C (second compound 3.16 µM, first compound 0.01 µM): 61.6%; viability, T/C (second compound 10 µM, first compound 0.000316 µM): 75.8%; viability, T/C (second compound 10 µM, first compound 0.001 µM): 73.8%; viability, T/C (second compound 10 µM, first compound 0.00316 µM): 63.5%; viability, T/C (second compound 10 µM, first compound 0.01 µM): 69.3%
COc1ccc([C@@H](O)c2cc(-c3ncnc4cc(N5CCOCC5)ccc34)c(F)cc2Cl)nn1 + Cc1ccccc1N=Nc1ccc(NC(=O)c2ccnn2C)c(C)c1 | 2220 | 2550 | 5040 | 4750 | 1980 | 97.2 | 98.1 | 82.9 | 94.2 | 94.6 | 89 | 84.5 | 80.5 | 89.5 | 73.5 | 87.2 | 58.6 | 50 | 33.9 | 77.6 | viability, T/C [21]: 65%; viability, T/C [22]: 47.6%; viability, T/C [23]: 33.5%; viability, T/C [24]: 86.2%; viability, T/C [25]: 68.1%; viability, T/C [26]: 57.9%; viability, T/C [27]: 40.4%; viability, T/C [28]: 70.6%; viability, T/C [29]: 68.9%; viability, T/C [30]: 59.2%; viability, T/C [31]: 36.8%; viability, T/C [32]: 77.7%; viability, T/C [33]: 60.9%; viability, T/C [34]: 41.2%; viability, T/C [35]: 37.4%
Nc1ccccc1NC(=O)c1ccc(CNC(=O)OCc2cccnc2)cc1 + Cc1ccccc1N=Nc1ccc(NC(=O)c2ccnn2C)c(C)c1 | 1860 | 2770 | 2110 | 1740 | 1460 | 76.7 | 135 | 90.2 | 103 | 101 | 100 | 119 | 120 | 89 | 94 | 91 | 62.1 | 41.5 | 13.6 | 93.8 | viability, T/C [21]: 86%; viability, T/C [22]: 45.3%; viability, T/C [23]: 18%; viability, T/C [24]: 90.7%; viability, T/C [25]: 63.1%; viability, T/C [26]: 43.7%; viability, T/C [27]: 19.9%; viability, T/C [28]: 90.2%; viability, T/C [29]: 64.3%; viability, T/C [30]: 36.5%; viability, T/C [31]: 23.7%; viability, T/C [32]: 86.6%; viability, T/C [33]: 52.6%; viability, T/C [34]: 41.2%; viability, T/C [35]: 22.8%
COc1cccc2c1C(=O)c1c(O)c3c(c(O)c1C2=O)CC(O)(C(=O)CO)CC3OC1CC(N)C(O)C(C)O1 (configuration not stated) + CC(CO)NC(=O)c1cc(-c2ccc(Cl)cc2)nn(-c2cnn(C)c2)c1=O | 348 | 136 | 151 | 337 | 165 | 62.5 | 67.7 | 49.2 | 61.1 | 72 | 52.9 | 68.6 | 54 | 58.7 | 61.3 | 54 | 5.59 | 1.72 | 3.58 | 35.6 | viability, T/C [21]: 4%; viability, T/C [22]: 1.69%; viability, T/C [23]: 2.61%; viability, T/C [24]: 39.2%; viability, T/C [25]: 3.81%; viability, T/C [26]: 1.11%; viability, T/C [27]: 2.5%; viability, T/C [28]: 52.8%; viability, T/C [29]: 1.66%; viability, T/C [30]: 2.16%; viability, T/C [31]: 2.9%; viability, T/C [32]: 37%; viability, T/C [33]: 0.78%; viability, T/C [34]: 1.79%; viability, T/C [35]: 3.41%
NS(=O)(=O)OCC1CC(n2ccc3c(NC4CCc5ccccc54)ncnc32)CC1O (configuration not stated) |  |  |  |  |  |  |  |  |  |  |  |  |  |  |  |  |  |  |  |  | viability, T/C (compound 0.0316 µM): 151% and 137% and 133%; viability, T/C (compound 0.1 µM): 143% and 152% and 145%; viability, T/C (compound 0.316 µM): 120% and 101% and 89.3%; viability, T/C (compound 1 µM): 99.3% and 103% and 71.7%; viability, T/C (compound 3.16 µM): 88.6% and 93.6% and 57.3%; viability, T/C (compound 10 µM): 77% and 86.9% and 55.2%; IC50 (curve of compound): > 10000 nM and 8700 nM

From PubChem BioAssay AID1919017 (Molecular Pharmacology Branch, DTP, NCI, 2023)
